Data set [1] concerns DLD-1 colorectal cancer cells. The data set is described as follows: Induction of apoptosis, Annexin V-FITC / propidium iodide flow cytometry. The format is cell-based, human. To be noted: 24 hours. The protocol:
DLD-1 human colorectal cancer cells (ATCC CCL-221, Manassas, VA, USA) were grown in DMEM (Dulbecco's Modified Eagle's Medium) supplemented with 10% fetal bovine serum (FBS), 2 mM glutamine, 50 U/ml penicillin, 50 μg/ml streptomycin at 37° C., in atmosphere containing 5% of CO2. Then the cells were counted in a hemocytometer and transferred in the amount of 1×10^6 cells per well in 1 ml of culture medium from Costar flasks (Sigma, USA) to Nunc 6-well plates (Wiesbaden, Germany). The cells were transferred using calcium-free phosphate buffer with the addition of 0.05% trypsin and 0.02% EDTA. […] Within the subsequent 24 hours the cells covered at least 80% of the surface of each plate well. The cells prepared in this manner were incubated with the examined compounds for 24 hours and then used for further experiments.
Induction of apoptosis was examined by a method using fluorescein isothiocyanate-labelled Annexin V (Annexin V-FITC) which forms complexes with phosphatidylserine in the presence of calcium ions. The complexes were determined using FITC Annexin V Apoptosis Detection Kit II (BD Biosciences, USA) and a flow cytometer BD FACSCanto H (BD Biosciences Systems, San Jose, CA, USA). The analysis of results was carried out by means of FACSDiva software (BD Biosciences Systems, San Jose, CA USA).
DLD-1 and HT-29 cells were incubated for 24 hours in an incubator at 37° C. in a 5% CO2 atmosphere with medium containing the examined compounds according to the invention at specific concentrations. Both examined compounds were used at a concentration of 1.5 μM and 3.0 μM. After the incubation period, the medium was removed, a binding buffer included in the kit was added and the cells were suspended in the buffer. In order to calibrate the apparatus two control samples, i.e. a positive one and a negative one, were prepared. The positive control constituted a reference of control cells in which apoptosis was induced by the addition of 3% formaldehyde. Three control samples were prepared. The first sample contained control cells and propidium iodide, the second sample contained control cells and Annexin V-FITC and the third sample contained control cells, propidium iodide and Annexin V-FITC. After adding 2 μl of 3% formaldehyde the cells were placed in a refrigerator for 10 minutes. Cells that were not treated with any agent constituted the negative control. The cells from the control samples and the cells treated by the examined compounds according to the invention (1×10^6 cells/ml) suspended in the buffer included in the kit were subjected to further examination. 200 μl suspension were taken from each examined sample and were transferred to test tubes. 3 μl Annexin V-FITC and 5 μl propidium iodide (PI) were added to each sample in room temperature and the samples were placed in a dark place for 15 minutes. Cell suspension prepared in this manner was analyzed within one hour in the flow cytometer BD FACSCanto II (BD Biosciences Systems, San Jose, CA, USA) by means of FACSDiva software. The results of the above experiment can be described as follows: live cells (double negative sample—lack of reaction with Annexin V and P), early apoptosis (Annexin V positive and PI negative sample), late apoptosis (Annexin V positive and PI positive sample) and necrosis (Annexin V negative and PI positive sample)
Background: Flow cytometry measures light scatter and fluorescence of single cells or particles in a stream.

The next data set has as its system DLD-1 xenografts. Put plainly: Tumour growth in mice with xenografts. Type of data set: in vivo. To be noted: mice with DLD-1 xenografts. The protocol:
(§1) The second stage of the study was carried out with the use of animals (Cby.Cg-Foxn1nu/J mice, females) (Jackson Laboratory, USA). […] All procedures were carried out in accordance with the guidelines for experiments in animals and a protocol approved by the Local Ethics Committee (Resolution No. August 2018).
(§2) The studies in in vivo conditions were carried out in the Centre of Experimental Medicine of the Medical University of Bialystok. It is a modern institution which ensures a high standard of SPF barrier animal facilities. Animals are housed in a room with […], in the optimal temperature of 22° C., 55% air humidity, with fifteen air changes per hour (with the speed not exceeding 0.3 m/s) and 12:12 light-dark cycle. The animals were under 24-hour monitoring and period controls of both the animals (in accordance with FELASA recommendations) and the rooms in which they were housed were carried out. The Centre for Experimental Medicine has a Good Laboratory Practice (GLP) certificate.
(§3) During the initial studies the mice were divided into two groups.
(§4) After the first week, when tumours reached about 5 mm in diameter, i.e. the size which according to literature data is suitable for carrying out further steps of examination, the mice began receiving subcutaneous injections of the sulfonamide derivative of 7-methyl-5-phenyl-pyrazolo[4,3-e]tetrazolo[4,5-b][1,2,4]triazine comprising 4-hydroxy-L-proline methyl ester in the sulfonamide group according to the invention (the compound of Formula 3) in a dose of 50 μg/kg once a day for two weeks. The moment of administration of the compound was marked as time 0. The control group was constituted by animals that received subcutaneously 50 μl of 10% DMSO in PBS (the solvent for the compound of Formula 3). Before the administration of the sulfonamide derivative of 7-methyl-5-phenyl-pyrazolo[4,3-e]tetrazolo[4,5-b][1,2,4]triazine comprising 4-hydroxy-L-proline methyl ester in the sulfonamide group according to the invention (time 0), after the first week (time 1) and the second week (time 2) of administering this compound, the sizes of tumours were measured in two dimensions by means of a digital calliper. The volume of tumours was expressed in mm3 in accordance with the calculations that were described by Feldman et al. (Feldman J P. Goldwasser R. Mark S. Schwartz J. Orion I. JAQM. 2009.4.455-462).

The subject of a further data set is HT-29 xenografts. Put plainly: Tumour growth in mice with xenografts. Type of data set: in vivo. The following applies: mice with HT-29 xenografts. As to the method:
as §1, §2, §3, §4

A short description of data set [2]: Haematological analysis of xenograft mice after two-week therapy. The format is in vivo. To be noted: mice with DLD-1 and HT-29 xenografts, 50 μg/kg s.c. once a day. The protocol: as §1
as §4, with “The control group was constituted by animals that received subcutaneously 50 μl of 10% DMSO in PBS (the solvent for the compound of Formula 3).” left out, “The volume of tumours was expressed in mm3 in accordance with the calculations that were described by Feldman et al. (Feldman J P. Goldwasser R. Mark S. Schwartz J. Orion I. JAQM. 2009.4.455-462).” left out

A short description of data set [3]: Body weight of xenograft mice after two-week therapy. Type of data set: in vivo. To be noted: mice with DLD-1 and HT-29 xenografts, 50 μg/kg s.c. once a day. The protocol:
as §1
as §4, with “The control group was constituted by animals that received subcutaneously 50 μl of 10% DMSO in PBS (the solvent for the compound of Formula 3).” left out, “The volume of tumours was expressed in mm3 in accordance with the calculations that were described by Feldman et al. (Feldman J P. Goldwasser R. Mark S. Schwartz J. Orion I. JAQM. 2009.4.455-462).” left out
Additionally, the effect of the compound of Formula 3 on the body weight of the animals after the two-week therapy was assessed.

Setting [4] is: 50 μg/kg s.c. once a day for two weeks, p<0.05.
[5] abbreviates: 50 μg/kg s.c. once a day, after the second week, p<0.001.
The mark [6] stands for this setting: DLD-1, 3.0 μM, listed as compound of Formula 3.

In data set [1] (DLD-1, 1.5 μM), `COC(=O)C1CCCN1S(=O)(=O)c1ccc(-n2nc(C)c3nc4nnnn4nc32)cc1` (stereo not shown) [Compound of Formula 2, Methyl 1-[4-(7-methyl-5H-pyrazol[4,3-e]tetrazolo[4,5-b][1,2,4]triazyn-5-yl)phenylsulfonyl]pyrrolidine-2-carboxylate] returned an Early apoptosis of 13.1%, a Late apoptosis of 9.6%, a Live cells of 74.8% and a Necrosis of 2.5%. Further, the “early and late apoptotic cells (total)” value in data set [1] (DLD-1, 1.5 μM) is recorded as 22.7%. Besides, the Necrosis in data set [1] (DLD-1, 1.5 μM, listed as compound of Formula 2) is on record as 2.5%. Also, in data set [1] (DLD-1, 3.0 μM), the Early apoptosis was 16.4%, the Late apoptosis came out at 30.0%, the Live cells stood at 47.1% and the Necrosis came to 6.6%. Further, the “early and late apoptotic cells (total)” value in data set [1] (DLD-1, 3.0 μM) amounted to 46.4%. This compound yielded a Necrosis in data set [1] (DLD-1, 3.0 μM, listed as compound of Formula 2) of 6.6%.
For `COC(=O)C1CC(O)CN1S(=O)(=O)c1ccc(-n2nc(C)c3nc4nnnn4nc32)cc1` (stereo not shown) [Compound of Formula 3, Methyl 4-hydroxy-1-[4-(7-methyl-5H-pyrazolo[4,3-e]tetrazolo[4,5-b][1,2,4]triazyn-5-yl)phenylsulfonyl]pyrrolidine-2-carboxylate], the “tumour weight post mortem vs control” value with DLD-1 xenografts (setting [4]) and with HT-29 xenografts (setting [4]) was “Statistically significant reduction in tumour weight” in each case. The “inhibition of tumour growth (tumour volume) vs control” value in the data set with DLD-1 xenografts (setting [5]) and in the data set with HT-29 xenografts (setting [5]) was “statistically significant inhibition of tumour growth” throughout. The Early apoptosis is reported as 17.0% in data set [1] (DLD-1, 1.5 μM); 1.7% in data set [1] (DLD-1, 3.0 μM); 1.7% in data set [1] (setting [6]). Besides, the Late apoptosis is given as 32.1% in data set [1] (DLD-1, 1.5 μM); 80.8% in data set [1] (DLD-1, 3.0 μM); 80.8% in data set [1] (setting [6]). Besides, the Live cells in data set [1] (DLD-1, 1.5 μM) turned out to be 43.9%; in data set [1] (DLD-1, 3.0 μM), 11.0%. Besides, the Necrosis is 7.0% in data set [1] (DLD-1, 1.5 μM); 7.0% in data set [1] (DLD-1, 1.5 μM, listed as compound of Formula 3); 6.5% in data set [1] (DLD-1, 3.0 μM); 6.5% in data set [1] (setting [6]). Also, the “early and late apoptotic cells (total)” value in data set [1] (DLD-1, 1.5 μM) is 49.1%. Besides, the “haematological parameters (WBC, RBC, PLT, HCT, HGB, MCV, MCH, MCHC)” value in data set [2] is “did not reveal any statistically significant changes”. In addition, in data set [3], the “effect on body weight of the animals vs control” value is listed as “No significant differences”.

The record behind these values is patent US12319699B2, “L-proline sulfonamide derivatives comprising pyrazolo[4,3-e]tetrazolo[4,5-b][1,2,4]triazine system, method of manufacturing thereof, uses thereof and pharmaceutical composition comprising the same” (UNIWERSYTET MEDYCZNY W BIALYMSTOKU, priority 2018, dated 2025).
